In patent EP3170833B1, “20,23-PIPERIDINYL-5-O-MYCAMINOSYL-TYLONOLIDE POLYMORPHS” (Intervet International B.V., priority 2007, dated 2009):
Values belong to the compound of their own block, whether it stands above or below them.

Tests used:
Format in all cases: physicochemical
[1] = Dynamic vapor sorption (DVS); conditions: 25°C; for maximum water uptake: at 95% relative humidity
Experimental: Dynamic vapor sorption ("DVS") measurements were obtained with a Projekt Messtechnik SPS11-100n water vapor sorption analyzer. The samples were placed into aluminum crucibles on a microbalance, and allowed to equilibrate at 25°C and 50% relative humidity before initiating the following pre-defined humidity program at 25°C: 50-95-0-50% relative humidity, and scanning with a 5% change in relative humidity per hour and with iso-humid equilibration periods at extreme values.

[2] = Thermogravimetry (TG / TG-FTIR): thermal stability; conditions: N2 atmosphere, heating rate of 10°C/min
Experimental: Measurements of thermogravimetry coupled to Fourier transform infrared spectroscopy ("TG-FTIR") were obtained using a Netzsch Thermo-Microbalance TG 209 with a Bruker Vector 22 FT-IR Spectrometer using an aluminum crucible (with micro-hole or open), N2 atmosphere, heating rate of 10°C/min, and temperature range of 25-250°C.
Thermogravimetry ("TG") measurements were obtained with a Perkin Elmer TGS 2 thermogravimetric analyzer using an aluminum crucible (open), N2 atmosphere, heating rate of 10°C/min, and temperature range of 25-500°C.

[3] = Desolvation experiment: drying under vacuum
Experimental: A weight loss of from about 8.7-10% occurred due to tBME liberation. This weight loss corresponds to 0.8-0.9 tBME molecule per molecule of 20,23-dipiperidinyl-5-O-mycaminosyl-tylonolide, assuming essentially pure 20,23-dipiperidinyl-5-O-mycaminosyl-tylonolide. Almost all the weight loss occurs above 90°C, with a sharp step when the temperature increases to greater than 100°C. Thus, the majority of the weight loss occurs at temperatures greater than the boiling point of tBME.
Example 7. Preparation of the Form III polymorph of 20,23-dipiperidinyl-5-O-mycaminosyl-tylonolide. The Form III polymorph of 20,23-dipiperidinyl-5-O-mycaminosyl-tylonolide was prepared by drying, under vacuum at ambient temperature for 20 hours, the ethyl acetate S1 crystalline solvate of 20,23-dipiperidinyl-5-O-mycaminosyl-tylonolide (50 mg) prepared in accordance with Example 6.
Although this procedure was successfully repeated for forming S2 solvate crystals, additional batches of S2 solvate crystals were formed by dissolving an additional amount of the Form II polymorph of 20,23-dipiperidinyl-5-O-mycaminosyl-tylonolide in tert-butyl methyl ether, seeding S2 solvate crystals from the first batch, and removing the tert-butyl methyl ether. In one experiment, the S2 crystalline solvate was prepared by dissolving the Form II polymorph of 20,23-dipiperidinyl-5-O-mycaminosyl-tylonolide (245.7 mg) in tert-butyl methyl ether (0.5 ml), and slowly evaporating a portion of the solvent at ambient temperature. After no crystals formed, additional tert-butyl methyl ether was added, followed by seeding S2 solvate crystals from the first batch. The solvent was then allowed to evaporate completely. The FT-Raman spectrum for these crystals was approximately identical to the FT-Raman spectrum for the crystals from the first batch. […] The FT-Raman spectra of the crystals after each drying step coincided to the FT-Raman spectrum from the first batch.

[4] = Solubility in tBME; conditions: solvent tBME

maximum water uptake [1]: less than 1 % (by weight)
Compound: CCC1OC(=O)CC(O)C(C)C(OC2OC(C)C(O)C(N(C)C)C2O)C(CCN2CCCCC2)CC(C)C(=O)C=CC(C)=CC1CN1CCCCC1 (stereo not drawn) [Form I polymorph, 20,23-dipiperidinyl-5-O-mycaminosyl-tylonolide]

temperature at which decomposition began ([2]; TG): greater than 270 °C
water uptake ([1]; between 70 and 85% relative humidity): about 6%
Compound: CCC1OC(=O)CC(O)C(C)C(OC2OC(C)C(O)C(N(C)C)C2O)C(CCN2CCCCC2)CC(C)C(=O)C=CC(C)=CC1CN1CCCCC1 (stereo not drawn) [Form III polymorph, 20,23-dipiperidinyl-5-O-mycaminosyl-tylonolide]

Second part, the compound before the results:

Compound: CCC1OC(=O)CC(O)C(C)C(OC2OC(C)C(O)C(N(C)C)C2O)C(CCN2CCCCC2)CC(C)C(=O)C=CC(C)=CC1CN1CCCCC1 (stereo not drawn) [Form II polymorph, 20,23-dipiperidinyl-5-O-mycaminosyl-tylonolide]
temperature at which decomposition began ([2]; TG-FTIR): greater than 220 °C
maximum water uptake [1]: about 2 % (by weight)

Compound: CCC1OC(=O)CC(O)C(C)C(OC2OC(C)C(O)C(N(C)C)C2O)C(CCN2CCCCC2)CC(C)C(=O)C=CC(C)=CC1CN1CCCCC1 (stereo not drawn) [ethyl acetate S1 crystalline solvate, 20,23-dipiperidinyl-5-O-mycaminosyl-tylonolide]
conversion by vacuum drying ([3]; vacuum drying at ambient temperature): readily converted into the Form III polymorph

Compound: CC[C@H]1OC(=O)C[C@@H](O)[C@H](C)[C@@H](O[C@@H]2O[C@H](C)[C@@H](O)[C@H](N(C)C)[C@H]2O)[C@@H](CCN2CCCCC2)C[C@@H](C)C(=O)/C=C/C(C)=C/[C@@H]1CN1CCCCC1 [tBME S2 crystalline solvate, 20,23-dipiperidinyl-5-O-mycaminosyl-tylonolide]
solubility [4]: 40 to 50 mg/mL
stability ([3]; 60°C at 1 mbar (absolute) for 1 day): exhibits stability
loss of solvent upon drying under vacuum ([3]; at both ambient temperature and 70°C): no loss of solvent was observed
